How the values were obtained:
[1] = system: neurons differentiated from H9-derived spinal cord NSCs; assay: Whole-cell patch clamp electrophysiology of neurons differentiated from H9-derived spinal cord NSCs; conditions: spontaneous postsynaptic currents, all three drugs
SOX1+/SOX2+/Nestin+ NSCs = assay: Long-term maintenance culture of spinal cord NSCs; assay type: cell-based, human; conditions: due to differentiation, data not shown

| Molecule | spiking of neuron after glutamate receptor and GABA-A receptor antagonists [1] | culture maintenance over time on omission of the component from maintenance medium (SOX1+/SOX2+/Nestin+ NSCs) |
| --- | --- | --- |
| N[C@@H](CCCP(=O)(O)O)C(=O)O [APV] | no change in spiking | – |
| Cc1c[nH]c(-c2cnc(NCCNc3ccc(C#N)cn3)nc2-c2ccc(Cl)cc2Cl)n1 [CHIR, CHIR99021] | – | failure to sustain cultures |
| O=[N+]([O-])c1cc2nc(O)c(O)nc2cc1[N+](=O)[O-] [DNQX] | no change in spiking | – |
| CNC1CCC(N(Cc2cccc(-c3ccncc3)c2)C(=O)c2sc3c(F)ccc(F)c3c2Cl)CC1 (centres unmarked) [Hh-Ag1.5] | – | failure to sustain cultures |
| picrotoxin | no change in spiking | – |

Source: patent US20250066724A1, “GENERATION OF HUMAN SPINAL CORD NEURAL STEM CELLS” (THE REGENTS OF THE UNIVERSITY OF CALIFORNIA, priority 2023, published 2025)
